According to patent publication US9708639B2, “Method for quantifying amino acids with pyrophosphate” (TOYAMA PREFECTURE, priority 2012, dated 2017):

Tests used:
Set-up in all cases: key: +: Activity was detected; −: Activity was not detected
Thermotoga-derived SerRS = target: T1, Thermotoga-derived SerRS (Thermotoga maritima, UniProt Q9X199); test: Qualitative test of AARS substrate specificity (molybdenum blue method); type: biochemical, Thermotoga maritima MSB8 strain; settings: Tyr 1 mM, other amino acids 5 mM; hydroxylamine 1000 mM; SerRS 0.1 mg/ml (1 mU/ml); 30° C.
T1 construct: His tag (C); made in house; host or cells: Escherichia coli BL21 (DE3)
Description: (§1) A test sample containing an amino acid as the measurement subject and a reaction mixture for quantifying amino acid having the following composition were mixed. The mixture was left standing at 30° C. to allow the AARS reaction to advance. The mixture in a volume of 33 μl, 66 μl of water, and 1 μl of a 300 U/ml yeast pyrophosphatase solution were mixed, and left standing at room temperature for 20 minutes to allow the pyrophosphatase reaction to advance. Then, the reaction mixture was mixed with 100 μl of a color development solution A and 30 μl of a color developing solution B having the following compositions, then the mixture was left standing at room temperature for 5 minutes, and the absorbance was measured at 700 nm or 900 nm with a microplate reader.
(§2) Reaction mixture for quantifying amino acid: 20 mM Tris-HCl (pH 7.0), 5 mM MgCl2, 2 mM ATP, and AARS (concentrations are final concentrations obtained after mixing with test sample)
(§3) Color developing solution A: A solution obtained by mixing water and concentrated sulfuric acid at a ratio of 3:1 and dissolving (NH4)6Mo7O24.4H2O in the mixture at a concentration of 0.066 g/ml
(§4) Color developing solution B: A solution obtained by mixing water and concentrated sulfuric acid at a ratio of 10000:7 and dissolving FeSO4.7H2O in the mixture at a concentration of 145 mg/ml
(§5) Presence or absence of pyrophosphate generation was verified for the Thermotoga-derived CysRS, HisRS, LysRS, ProRS, SerRS, TrpRS, and TyrRS by using the AARS activity measurement method described in 9. and standard solutions of the various amino acids as test samples. AARSs were added to the reaction mixture at final concentrations of 0.3 (8 mU/ml), 0.1, 0.2 (3 mU/ml), 0.2, 0.1 (1 mU/ml), 0.1, 0.2 (20 mU/ml) mg/ml, respectively. The reaction mixtures were prepared so that the final concentration of Tyr was 1 mM, and the final concentrations of the other amino acids were 5 mM. As for the hydroxylamine concentration, it was added at a final concentration of 1000 mM for all the cases. Further, presence or absence of pyrophosphate production was also verified for the Thermus-derived MetRS and TyrRS by using the AARS activity measurement method described in 10. and standard solutions of the various amino acids as test samples. The reaction mixtures were prepared so that the final concentrations of the amino acids were 200 μM. Hydroxylamine was added at a final concentration of 400 mM.
(§6) Detection or no detection of the activity in the reaction mixtures containing a combination of each AARS and amino acid are shown in Table 2. The symbol + indicates detection of the activity, and − indicates no detection of the activity.

Thermotoga-derived TyrRS = target: T2, Thermotoga-derived TyrRS (Thermotoga maritima, UniProt Q9WYU8); test: as above; type: biochemical, Thermotoga maritima MSB8 strain; settings: Tyr 1 mM, other amino acids 5 mM; hydroxylamine 1000 mM; TyrRS 0.2 mg/ml (20 mU/ml); 30° C.
T2 construct: The amplification products were each inserted into pET-28a to obtain plasmids for expression of respective AARSs; His tag (N); made in house; host or cells: Escherichia coli BL21 (DE3)
T2 sequence (Q9WYU8 1-401): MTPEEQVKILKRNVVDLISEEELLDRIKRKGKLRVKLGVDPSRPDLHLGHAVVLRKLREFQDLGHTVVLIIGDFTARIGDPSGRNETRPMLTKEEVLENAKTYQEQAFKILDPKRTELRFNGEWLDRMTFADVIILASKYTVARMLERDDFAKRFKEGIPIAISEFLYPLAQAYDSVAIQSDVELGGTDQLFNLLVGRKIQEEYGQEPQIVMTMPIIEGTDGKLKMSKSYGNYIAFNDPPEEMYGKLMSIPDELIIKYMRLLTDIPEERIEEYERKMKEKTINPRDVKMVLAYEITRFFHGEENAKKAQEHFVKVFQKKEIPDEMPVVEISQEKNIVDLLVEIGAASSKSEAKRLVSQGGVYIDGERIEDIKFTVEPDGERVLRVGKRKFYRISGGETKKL
Description: as §1, §2, §3, §4, §5, §6

Thermotoga-derived TrpRS = target: T3, Thermotoga-derived TrpRS (Thermotoga maritima, UniProt Q9WYW2); test: as above; type: biochemical, Thermotoga maritima MSB8 strain; settings: Tyr 1 mM, other amino acids 5 mM; hydroxylamine 1000 mM; TrpRS 0.1 mg/ml; 30° C.
T3 construct: His tag (C); made in house; host or cells: Escherichia coli BL21 (DE3)
T3 sequence (Q9WYW2 1-328): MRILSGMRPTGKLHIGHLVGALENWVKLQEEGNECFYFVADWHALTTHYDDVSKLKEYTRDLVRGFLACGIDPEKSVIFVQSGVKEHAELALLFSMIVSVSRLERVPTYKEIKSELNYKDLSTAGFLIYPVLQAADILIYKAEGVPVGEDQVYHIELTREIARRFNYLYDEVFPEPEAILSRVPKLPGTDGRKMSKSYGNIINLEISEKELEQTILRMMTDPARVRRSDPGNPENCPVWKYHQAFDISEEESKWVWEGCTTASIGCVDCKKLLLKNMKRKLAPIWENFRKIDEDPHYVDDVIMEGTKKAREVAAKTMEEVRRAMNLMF
Description: as §1, §2, §3, §4, §5, §6

Thermus-derived TyrRS = target: T4, Thermus-derived TyrRS (Thermus thermophilus, UniProt P83453); test: Qualitative test of AARS substrate specificity (AARS activity at 70° C.); type: biochemical, Thermus thermophilus HB8 strain; settings: amino acids 200 μM, hydroxylamine 400 mM
T4 construct: host or cells: Escherichia coli BL21 (DE3)
Description: (§7) A test sample containing an amino acid as the measurement subject and a reaction mixture for quantifying amino acid having the following composition were mixed. The mixture was left standing at 70° C. to allow the AARS reaction to advance. The mixture in a volume of 600 μl, 60 μl of a 1 M 2-mercaptoethanol solution, and 240 μl of the color development solution mentioned below were mixed, then the mixture was left standing at room temperature for 20 minutes, and the absorbance was measured at 580 nm in a cuvette having an optical path length of 1 cm.
(§8) Reaction mixture for quantifying amino acid: 20 mM HEPES-NaOH (pH 8.0), 5 mM MgCl2, 0.5 mM ATP, and AARS (concentrations are final concentrations obtained after mixing with test sample)
(§9) Color developing solution: A solution obtained by mixing water and concentrated sulfuric acid at a ratio of 6:1 and dissolving (NH4)6Mo7O24.4H2O in the mixture at a concentration of 0.025 g/ml
as §5, §6

Thermus-derived MetRS = target: T5, Thermus-derived MetRS (Thermus thermophilus, UniProt P23395); test: as above; type: biochemical, Thermus thermophilus HB8 strain; settings: amino acids 200 μM, hydroxylamine 400 mM
T5 construct: host or cells: Escherichia coli BL21 (DE3)
Description: as §7, §8, §9, §5, §6

T4 sequence (P83453 whole entry): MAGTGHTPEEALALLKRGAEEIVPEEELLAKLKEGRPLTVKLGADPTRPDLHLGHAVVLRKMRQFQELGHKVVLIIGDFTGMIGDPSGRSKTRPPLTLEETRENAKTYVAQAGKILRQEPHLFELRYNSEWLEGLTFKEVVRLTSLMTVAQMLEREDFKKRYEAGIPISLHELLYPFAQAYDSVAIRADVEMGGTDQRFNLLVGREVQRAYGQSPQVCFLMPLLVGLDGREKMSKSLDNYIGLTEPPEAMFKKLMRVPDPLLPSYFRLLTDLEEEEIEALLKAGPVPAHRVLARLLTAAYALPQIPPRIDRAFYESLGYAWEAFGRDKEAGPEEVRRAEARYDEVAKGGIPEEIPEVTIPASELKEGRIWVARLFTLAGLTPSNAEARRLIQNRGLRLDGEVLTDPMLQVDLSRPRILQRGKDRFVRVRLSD
T5 sequence (P23395 whole entry): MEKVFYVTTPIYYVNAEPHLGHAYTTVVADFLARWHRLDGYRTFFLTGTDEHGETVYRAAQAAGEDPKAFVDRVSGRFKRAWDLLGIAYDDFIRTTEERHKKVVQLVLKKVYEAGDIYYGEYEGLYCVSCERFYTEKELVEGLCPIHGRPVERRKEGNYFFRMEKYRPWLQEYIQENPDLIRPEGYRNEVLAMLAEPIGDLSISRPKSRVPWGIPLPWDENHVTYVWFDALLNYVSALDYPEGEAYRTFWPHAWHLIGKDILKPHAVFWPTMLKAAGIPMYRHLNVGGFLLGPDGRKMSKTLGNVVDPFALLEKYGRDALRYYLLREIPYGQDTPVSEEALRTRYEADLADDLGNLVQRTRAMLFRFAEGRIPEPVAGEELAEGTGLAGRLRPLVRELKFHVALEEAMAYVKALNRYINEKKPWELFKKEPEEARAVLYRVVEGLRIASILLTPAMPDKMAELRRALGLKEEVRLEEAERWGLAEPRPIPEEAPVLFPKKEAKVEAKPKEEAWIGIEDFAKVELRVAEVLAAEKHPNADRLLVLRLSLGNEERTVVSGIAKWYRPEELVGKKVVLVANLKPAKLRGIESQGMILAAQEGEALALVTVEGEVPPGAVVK
T1 sequence (Q9X199 whole entry): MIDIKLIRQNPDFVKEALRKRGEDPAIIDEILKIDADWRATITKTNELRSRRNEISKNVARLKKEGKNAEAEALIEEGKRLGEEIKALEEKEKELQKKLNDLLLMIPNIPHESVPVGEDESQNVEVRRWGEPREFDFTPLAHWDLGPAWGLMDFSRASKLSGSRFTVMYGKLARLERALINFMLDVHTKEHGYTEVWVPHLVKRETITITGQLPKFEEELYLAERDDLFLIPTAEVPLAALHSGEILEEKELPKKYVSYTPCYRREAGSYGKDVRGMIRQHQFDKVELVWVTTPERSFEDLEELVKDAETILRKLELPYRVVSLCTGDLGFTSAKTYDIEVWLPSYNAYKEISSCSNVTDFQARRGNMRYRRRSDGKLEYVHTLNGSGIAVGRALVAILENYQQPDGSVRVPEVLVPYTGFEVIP

Compound | Detection of the activity (pyrophosphate generation), SerRS (Thermotoga-derived SerRS) | Detection of the activity (pyrophosphate generation), TyrRS (Thermotoga) (Thermotoga-derived TyrRS) | Detection of the activity (pyrophosphate generation), TrpRS (Thermotoga-derived TrpRS) | Detection of the activity (pyrophosphate production), TyrRS (Thermus) (Thermus-derived TyrRS) | Detection of the activity (pyrophosphate production), MetRS (Thermus) (Thermus-derived MetRS)
N[C@@H](Cc1ccccc1)C(=O)O [Phe, L-phenylalanine] | − | − | − | − | −
O=C(O)[C@@H]1CCCN1 [Pro, L-proline] | − | − | − | − | −
N[C@@H](CO)C(=O)O [Ser, L-serine] | + | − | − | − | −
C[C@@H](O)[C@H](N)C(=O)O [Thr, L-threonine] | − | − | − | − | −
N[C@@H](Cc1c[nH]c2ccccc12)C(=O)O [Trp, L-tryptophan] | − | − | + | − | −
N[C@@H](Cc1ccc(O)cc1)C(=O)O [Tyr, L-tyrosine] | − | + | − | + | −
CC(C)[C@H](N)C(=O)O [Val, L-valine] | − | − | − | − | −
